In patent US9475795B2 (TAKEDA PHARMACEUTICAL COMPANY LIMITED, priority 2012, dated 2016):

Biological target: human PKR1 receptors (Homo sapiens (Human), UniProt Q8TCW9)
Test: PKR1 antagonist assay: block of PK1-mediated intracellular calcium release (FLIPR)
Type: cell-based
Details: RBL2H3 cells expressing human PKR1; 10 min preincubation; stimulation with PK1 at EC80; calcium fluorescence
Procedure: Prokineticin receptor 1 (PKR1) antagonists may be functionally assessed by measurement of change in intracellular calcium levels induced by Gq mediated increase in inositol triphosphate (IP3) levels. The ability of a compound to block the intracellular release of calcium mediated by PK1 in RBL2H3 cells expressing human PKR1 receptors is determined as a measure of the compound's antagonist activity in vitro.
Approximately 10,000 cells per assay well are seeded in normal culture medium in a 384 well plate (Corning). […]
To test for antagonist activity, test compounds at a final concentration range between 0.32 nM-10 μM (diluted in assay buffer) are added to the assay wells and allowed to incubate for 10 minutes prior to stimulation with PK1. After incubation with test compounds the assay plate is placed in a FLIPR Tetra (Molecular Devices) and PK1 (diluted in assay buffer) is added at the determined EC80 concentration (final). Ligand-dependent changes in intracellular calcium levels are determined by measuring changes in fluorescence of the dye at […] following excitation at 485 nm.

human PKR1 receptors, sequence (Q8TCW9 whole entry): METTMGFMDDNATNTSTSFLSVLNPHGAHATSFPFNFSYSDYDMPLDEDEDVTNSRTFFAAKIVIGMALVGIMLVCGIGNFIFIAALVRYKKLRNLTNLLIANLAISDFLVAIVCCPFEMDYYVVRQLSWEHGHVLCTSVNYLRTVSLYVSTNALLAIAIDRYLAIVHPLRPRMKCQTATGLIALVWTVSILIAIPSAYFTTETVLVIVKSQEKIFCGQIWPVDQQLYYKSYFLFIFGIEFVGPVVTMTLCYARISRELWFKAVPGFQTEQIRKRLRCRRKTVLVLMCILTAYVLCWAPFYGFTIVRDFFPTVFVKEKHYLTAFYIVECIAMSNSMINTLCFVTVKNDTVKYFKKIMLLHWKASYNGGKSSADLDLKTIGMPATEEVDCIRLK

## Cc1nn(C)c(C)c1S(=O)(=O)N1CCC(N(C)c2ccc(Cl)cc2)CC1 [Example 53]
  IC50: 900 nM
